Test results taken from patent US4863951A, “Pharmacologically active amino-5,6,7,8-tetrahydronaphtho [2,3-B] furan compounds” (ADIR Et Cie, priority 1987, dated 1989).
Structures can show the parent of a compound that is named as a salt. Where two headings read alike, the source gives them in different places.

What was measured:
[1] = tested on: interoceptive stimulus of apomorphine; assay: Drug discrimination in rats (generalization with apomorphine); assay type: in vivo; conditions: 30 minutes before test
Description: Rats were trained to discriminate between the effect of the interoceptive stimulus of apomorphine (0.2 mg.kg^-1 i.p.) and that of physiological saline, according to a principle described by Colpaert F. in "Drug discrimination application in C.N.S. Pharmacology" Ed. Elsevier Biomedical 1982, Amsterdam. […]
Under the experimental conditions employed, the behavior shown by the animals coincides with that noted in the case of administration of apomorphine.

[2] = tested on: apomorphine-induced rearing-up; assay: Antagonism of apomorphine-induced rearing-up behavior in mice; assay type: in vivo; conditions: Mus musculus, apomorphine 0.75 mg.kg^-1 s.c.
How it was run: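 Mice given compound i.p. (doses from 2.5 mg.kg^-1) or orally at 20 mg.kg^-1, then challenged with apomorphine 0.75 mg.kg^-1 s.c.; antagonism of rearing-up behavior scored per Protais et al., significance at p<0.05.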

[3] = tested on: amphetamine-induced stereotypy; assay: Antagonism of amphetamine-induced stereotypy in rats; assay type: in vivo; conditions: 3 hours
Description: The inhibitory activity of the compounds of the invention with respect to apomorphine- or amphetamine-induced stereotypy in rats was assessed using the scale of scoring of stereotyped movements described by Quinton R. M. and Halliwell G. in Nature (1963), 200, p. 178-179.
Apomorphine or amphetamine was administered to the animals intraperitoneally at a dose of 1.5 mg.kg^-1. The percentage inhibition (-) or potentiation (+) of the stereotypy score (% ISS) shown in Tables IV and V for apomorphine corresponds to a measurement time of 30 minutes. In contrast, the percentage inhibition of the stereotypy score shown in Table VI for amphetamine corresponds to a measurement time of 3 hours.
(s=significant difference, p<0.05).

[4] = tested on: isolation-induced aggression; assay: Antiaggressive effects: isolation-induced aggression in mice; assay type: in vivo; conditions: isolated mice, i.p.
How it was run: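 Two paradigms: inhibition of aggressive behaviour in previously isolated mice, and in isolated, bulbectomized rats. Significance set at p<0.05.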

[5] = tested on: aggression of isolated, bulbectomized rats; assay: Antiaggressive effects: aggression of isolated, bulbectomized rats; assay type: in vivo; conditions: i.p.
Source text: The antiaggressive effects of the compounds of the invention were investigated by two methods, one of them testing for an inhibition of aggressive behavior in peviously isolated mice (Yen C. Y., Stanger A. L., and Millman N, Arch. Int. Pharmacodyn. Therap. (1959), 123, p. 179-185), and the other in isolated and bulbectomized rats (Garattini S. and Sigg E. B. "Aggressive Behaviour" p. 47-55 Ed. Excerpta Medica Found., Amsterdam, 1969).
(Tables IX and X, s=significant, p<0.05).

[6] = tested on: ponto-geniculo-occipital (P.G.O.) waves induced by Ro4-1284; assay: Antagonism of the ponto-geniculo-occipital (P.G.O.) waves induced by Ro4-1284; assay type: in vivo; conditions: Felis catus, iv, cats, i.v., read-out: ED50 (effective dose inhibiting by 50% the number of P.G.O. waves)
Description: The antidepressant effects of the compounds of the invention were investigated by assessing the antagonism of reserpine-induced hypothermia and the antagonism of the ponto-geniculo-occipital waves induced by the compound Ro4-1284 in cats.
This study was performed according to the method of Ruch-Monachon M. A., Jalfre M. and Haefely W. described in Arch. Int. Pharm. Therap., (1976), 219, No. 2, p. 251-346, and it enabled the effective dose (i.v) inhibiting by 50% (ED50) the number of P.G.O waves to be assessed.

[7] = tested on: apomorphine-induced hypothermia; assay: Antagonism with respect to apomorphine-induced hypothermia in mice; assay type: in vivo; conditions: Mus musculus, 2 h, apomorphine 1 mg.kg^-1 s.c., after 2 hours
Description: Testing for an antagonism with respect to apomorphine-induced hypothermia in mice was performed according to the method described by CHERMAT R. and PONCELET M. in J. Pharmac. (1983), 14, No. 1, p. 93-97. The dose of apomorphine administered subcutaneously was 1 mg.kg^-1. Tables VII and VIII show the percentage antagonism of the hypothermia observed after 2 hours.

[8] = tested on: reserpine-induced hypothermia; assay: Antagonism of reserpine-induced hypothermia; assay type: in vivo, Swiss CD male mice; conditions: mice, reserpine 2.5 mg.kg^-1 i.p.
How it was run: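 Male Swiss CD mice (27-28 g, n=10/group) given reserpine 2.5 mg.kg^-1 i.p., then test compound i.p. 3 h later. Rectal temperature taken 1 and 2 h after compound dosing and compared with each animal's temperature just before compound administration.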

[9] = tested on: apomorphine-induced stereotypy; assay: Antagonism of apomorphine-induced stereotypy in rats; assay type: in vivo; conditions: Rattus norvegicus, 0.5 h, apomorphine 1.5 mg.kg^-1 i.p., 30 minutes
How it was run: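 Rats received apomorphine or amphetamine i.p. at 1.5 mg.kg^-1, and stereotyped movements were scored on the Quinton–Halliwell scale. Values are % inhibition (−) or potentiation (+) of stereotypy score, measured at 30 minutes for apomorphine and 3 hours for amphetamine.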

With `NC1CCc2cc3c(cc2C1)OCC3` (racemic) [Example 2, di-7-Amino-2,3,5,6,7,8-hexahydronaphtho[2,3-b]furan hydrochloride] the “% of animals which generalize” value ([1]; 1.0 mg.kg^-1 i.p.) was 20%, the “Number of animals showing the effect of generalization with apomorphine” value (from here on “Number”) ([1]; 1.0 mg.kg^-1 i.p.) was 2/10 and the “% of animals which generalize” value ([1]; 2.5 mg.kg^-1 i.p.) was 77%. The “Number” value ([1]; 2.5 mg.kg^-1 i.p.) was 7/9, the “% of animals which generalize” value ([1]; 5.0 mg.kg^-1 i.p.) was 50% and the “Number” value ([1]; 5.0 mg.kg^-1 i.p.) was 2/4. The change in vivo at 5 mg/kg ([2]; ip, read-out: % inhibition of rearing-up, mice, i.p. dose 5 mg.kg^-1) was -56%, the change in vivo at 10 mg/kg ([2]; ip, read-out: % inhibition of rearing-up, mice, i.p. dose 10 mg.kg^-1) was -58% and the change in vivo at 20 mg/kg ([2]; ip, read-out: % inhibition of rearing-up, mice, i.p. dose 20 mg.kg^-1) was -91%. It also gave a change in vivo at 40 mg/kg ([2]; ip, read-out: % inhibition of rearing-up, mice, i.p. dose 40 mg.kg^-1) of -100%, a change in vivo at 10 mg/kg ([2]; po, read-out: % inhibition of rearing-up, mice, p.o. dose 10 mg.kg^-1) of -77% and a change in vivo at 20 mg/kg ([2]; po, read-out: % inhibition of rearing-up, mice, p.o. dose 20 mg.kg^-1) of -100%. For the same compound, the “% ISS (inhibition (-) or potentiation (+) of the stereotypy score)” value ([3]; i.p. dose 5 mg.kg^-1, amphetamine 1.5 mg.kg^-1 i.p.) was “+32%”, the “% ISS (inhibition (-) or potentiation (+) of the stereotypy score)” value ([3]; i.p. dose 10 mg.kg^-1, amphetamine 1.5 mg.kg^-1 i.p.) was “+39%” and the “% of pairs of mice showing no sign of fighting” value ([4]; 2.5 mg.kg^-1) was 40%. For the same compound, the “% of pairs of mice showing no sign of fighting” value ([4]; 5 mg.kg^-1) was 70%, the “% of pairs of mice showing no sign of fighting” value ([4]; 10 mg.kg^-1) was 100% and the “% of pairs of mice showing no sign of fighting” value ([4]; 20 mg.kg^-1) was 100%. The “% of rats rendered non-aggressive” value ([5]; 1.25 mg.kg^-1) was 17%, the “% of rats rendered non-aggressive” value ([5]; 2.5 mg.kg^-1) was 50% and the “% of rats rendered non-aggressive” value ([5]; 5 mg.kg^-1) was 73%. The “% of rats rendered non-aggressive” value ([5]; 10 mg.kg^-1) was 17%, the ED50 [6] was 0.146 mg/kg and the change in vivo at 1 mg/kg ([7]; ip, read-out: % antagonism of hypothermia, mice, i.p. dose 1) was -11%. For the same compound, the change in vivo at 5 mg/kg ([7]; ip, read-out: % antagonism of hypothermia, mice, i.p. dose 5) was -57%, the change in vivo at 10 mg/kg ([7]; ip, read-out: % antagonism of hypothermia, mice, i.p. dose 10) was -54% and the change in vivo at 20 mg/kg ([7]; ip, read-out: % antagonism of hypothermia, mice, i.p. dose 20) was -80%. The change in vivo at 2.5 mg/kg ([7]; po, read-out: % antagonism of hypothermia, mice, p.o. dose 2.5) was -35%, the change in vivo at 5 mg/kg ([7]; po, read-out: % antagonism of hypothermia, mice, p.o. dose 5) was -59% and the change in vivo at 10 mg/kg ([7]; po, read-out: % antagonism of hypothermia, mice, p.o. dose 10) was -70%. For the same compound, the change in vivo at 20 mg/kg ([7]; po, read-out: % antagonism of hypothermia, mice, p.o. dose 20) was -86%, the “% inhibition of hypothermia” value ([8]; 2.5 mg.kg^-1 i.p.) was -62% and the “% inhibition of hypothermia” value ([8]; 5 mg.kg^-1 i.p.) was -27%. The “% inhibition of hypothermia” value ([8]; 10 mg.kg^-1 i.p.) was -32%, the “% inhibition of hypothermia” value ([8]; 20 mg.kg^-1 i.p.) was -47% and the change in vivo at 5 mg/kg ([9]; ip, read-out: % ISS (inhibition (-) or potentiation (+) of the stereotypy score), rats, i.p. dose 5 mg.kg^-1) was -16%. For the same compound, the change in vivo at 10 mg/kg ([9]; ip, read-out: % ISS (inhibition (-) or potentiation (+) of the stereotypy score), rats, i.p. dose 10 mg.kg^-1) was -62%, the change in vivo at 20 mg/kg ([9]; ip, read-out: % ISS (inhibition (-) or potentiation (+) of the stereotypy score), rats, i.p. dose 20 mg.kg^-1) was -48% and the change in vivo at 10 mg/kg ([9]; po, read-out: % ISS (inhibition (-) or potentiation (+) of the stereotypy score), rats, p.o. dose 10 mg.kg^-1) was -55%. It also gave a change in vivo at 20 mg/kg ([9]; po, read-out: % ISS (inhibition (-) or potentiation (+) of the stereotypy score), rats, p.o. dose 20 mg.kg^-1) of -55%.
